{"source": "patent US20100203647A1", "about": "“Chemical Reporters of Protein Acylation” (THE ROCKEFELLER UNIVERSITY, priority 2008, published 2010)", "type_in_all_cases": "biochemical", "key": {"[1]": {"target": "T1, p300 (Homo sapiens, UniProt Q09472)", "T1 construct": "made in house; host or cells: SF9 insect cells, baculovirus", "T1 sequence (Q09472 whole entry)": "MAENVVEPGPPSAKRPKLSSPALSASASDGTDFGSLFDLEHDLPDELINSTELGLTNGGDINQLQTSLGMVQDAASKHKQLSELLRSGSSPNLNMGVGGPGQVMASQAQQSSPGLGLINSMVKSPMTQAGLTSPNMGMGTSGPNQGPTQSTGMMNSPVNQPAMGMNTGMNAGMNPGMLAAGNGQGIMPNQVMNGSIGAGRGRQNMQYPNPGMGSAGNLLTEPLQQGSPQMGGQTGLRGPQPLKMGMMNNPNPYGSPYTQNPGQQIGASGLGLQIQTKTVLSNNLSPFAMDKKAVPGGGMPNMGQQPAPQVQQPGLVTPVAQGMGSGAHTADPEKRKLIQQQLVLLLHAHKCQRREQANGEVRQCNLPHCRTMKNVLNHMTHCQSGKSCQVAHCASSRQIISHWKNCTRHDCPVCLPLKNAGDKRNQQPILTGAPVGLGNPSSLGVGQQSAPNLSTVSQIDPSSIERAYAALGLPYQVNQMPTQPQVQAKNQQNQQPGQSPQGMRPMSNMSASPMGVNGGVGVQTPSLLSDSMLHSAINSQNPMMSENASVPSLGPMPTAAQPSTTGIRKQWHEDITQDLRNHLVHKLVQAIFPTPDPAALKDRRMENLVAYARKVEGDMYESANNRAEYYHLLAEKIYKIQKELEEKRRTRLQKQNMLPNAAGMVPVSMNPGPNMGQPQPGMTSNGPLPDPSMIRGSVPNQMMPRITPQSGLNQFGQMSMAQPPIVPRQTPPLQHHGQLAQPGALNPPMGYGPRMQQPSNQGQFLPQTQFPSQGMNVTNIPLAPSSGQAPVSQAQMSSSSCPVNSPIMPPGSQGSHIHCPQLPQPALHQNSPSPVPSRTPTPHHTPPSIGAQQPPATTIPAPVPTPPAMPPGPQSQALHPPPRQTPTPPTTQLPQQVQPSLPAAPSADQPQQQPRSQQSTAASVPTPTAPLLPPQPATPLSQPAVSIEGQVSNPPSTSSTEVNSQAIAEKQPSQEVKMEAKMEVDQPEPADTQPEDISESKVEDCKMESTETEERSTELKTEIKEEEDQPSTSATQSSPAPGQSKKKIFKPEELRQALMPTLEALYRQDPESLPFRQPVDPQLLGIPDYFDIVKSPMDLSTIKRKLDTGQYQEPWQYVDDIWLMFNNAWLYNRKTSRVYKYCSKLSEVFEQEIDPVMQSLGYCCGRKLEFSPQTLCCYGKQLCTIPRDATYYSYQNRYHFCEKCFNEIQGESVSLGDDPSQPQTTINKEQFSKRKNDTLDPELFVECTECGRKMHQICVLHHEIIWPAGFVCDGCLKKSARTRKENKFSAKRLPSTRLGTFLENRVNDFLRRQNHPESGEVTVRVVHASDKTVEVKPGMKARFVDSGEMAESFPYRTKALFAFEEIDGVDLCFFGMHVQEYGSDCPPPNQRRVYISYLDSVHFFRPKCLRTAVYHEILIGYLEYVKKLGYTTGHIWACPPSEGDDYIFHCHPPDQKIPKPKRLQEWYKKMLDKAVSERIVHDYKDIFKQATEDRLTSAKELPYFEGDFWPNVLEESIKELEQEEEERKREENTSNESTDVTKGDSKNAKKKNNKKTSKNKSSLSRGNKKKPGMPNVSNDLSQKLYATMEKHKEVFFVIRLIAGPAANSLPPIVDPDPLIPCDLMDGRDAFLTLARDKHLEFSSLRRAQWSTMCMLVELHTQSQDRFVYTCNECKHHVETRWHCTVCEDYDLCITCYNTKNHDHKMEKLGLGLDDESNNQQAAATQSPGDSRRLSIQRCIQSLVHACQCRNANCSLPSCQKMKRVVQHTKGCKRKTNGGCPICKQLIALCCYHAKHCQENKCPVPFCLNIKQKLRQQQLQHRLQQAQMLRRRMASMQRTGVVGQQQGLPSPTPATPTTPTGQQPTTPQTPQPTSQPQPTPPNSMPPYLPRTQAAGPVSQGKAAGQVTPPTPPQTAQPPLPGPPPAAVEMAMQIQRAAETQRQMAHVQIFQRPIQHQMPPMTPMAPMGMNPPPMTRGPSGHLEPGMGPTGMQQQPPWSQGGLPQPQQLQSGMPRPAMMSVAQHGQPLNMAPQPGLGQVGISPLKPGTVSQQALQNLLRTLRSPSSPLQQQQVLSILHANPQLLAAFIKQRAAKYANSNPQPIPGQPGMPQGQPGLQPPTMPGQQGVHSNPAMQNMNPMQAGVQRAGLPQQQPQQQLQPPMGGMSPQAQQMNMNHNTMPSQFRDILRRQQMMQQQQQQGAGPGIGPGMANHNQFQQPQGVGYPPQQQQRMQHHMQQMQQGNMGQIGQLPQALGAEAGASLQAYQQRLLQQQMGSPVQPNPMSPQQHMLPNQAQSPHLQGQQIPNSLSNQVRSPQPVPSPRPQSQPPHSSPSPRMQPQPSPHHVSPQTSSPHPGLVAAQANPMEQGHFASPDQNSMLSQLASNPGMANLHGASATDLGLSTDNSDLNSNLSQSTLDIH", "experiment": "MALDI-TOF analysis of p300-catalyzed acylation of histone H3 peptide in vitro", "settings": "20 μM analog, MS analysis", "method": "Cells were lysed in lysis buffer (20 mM Tris, pH 7.5, 500 mM NaCl, 4 mM MgCl2, 0.4 mM EDTA, 20% glycerol, 2 mM DTT, and supplemented with protease inhibitors). Clarified cell lysates were diluted to 300 mM NaCl, and NP-40 was added to 0.1% final concentration. Flag M2 agarose resin (Sigma) was added to the lysate and incubated for 4 hours at 4° C. […] Protein concentration and purity were estimated by comparison to BSA standards on SDS gels stained with Gelcode Blue stain (Pierce)."}, "[2]": {"target": "T1, p300", "experiment": "In vitro acylation of histone H3 protein by p300 and mapping of modification sites (spectral counts, nano-HPLC/MS/MS)", "method": "Following the in vitro reaction, proteins were separated on 15% SDS-PAGE and stained with coomassie brilliant blue R-250 staining solution (Bio-Rad). The gel slices containing histone H3 products were excised from each lane, washed with 50 mM ammonium bicarbonate (ABC) twice, destained with 50 mM ABC/CH3CN (50/50) twice and dehydrated with CH3CN. After drying the gel slices in a SpeedVac, gel slices were rehydrated with trypsin solution (2 μg of trypsin for each vial/gel slice) and incubated in 37° C. water bath for 18 hrs. Trypsin-digested peptides in solution were collected, dried in SpeedVac, resuspended in H2O (with 0.1% TFA) and submitted samples to nano-HPLC/MS/MS analysis (Thermo LTQ-Orbitrap in the Proteomic Resource Center at Rockefeller University).\nLC-MS analysis was performed with a Dionex 3000 nano-HPLC coupled to an LTQ-Orbitrap ion trap mass spectrometer (ThermoFisher). Peptides were pressure loaded onto a home made 75 μm diameter, 15 cm C18 reverse phase column and separated with a gradient running from 95% buffer A (HPLC water with 0.1% formic acid) and 5% buffer B (HPLC grade acetonitrile with 0.1% formic acid) to 55% B over 30 min, next ramping to 95% B over 10 min and holding 95% B for 10 min. One full MS scan (300-2000 MW) was followed by 3 data dependent scans of the nth most intense ions with dynamic exclusion enabled. The spray voltage was set to 1.94 kV and the flow rate through the column was set to 0.25 μL/min.\nRaw tandem mass spectra were searched against the human IPI protein database version 3.56 using SEQUEST search engine (Thermo Scientific). Cysteine carbamido-methylation was searched as fixed modification, while methionine/tryptophan oxidation, asparagines/glutamine deamindation, lysine/serine/threonine/cysteine acetylation, N-terminal acetylation/3-butynylation/4-pentynylation/5-hexynylation and lysine 3-butynylation/4-pentynylation/5-hexynylation were searched as variable modifications. Peptide tolerance was set as 10.0 ppm, fragment ion tolerance was set as 1.0 AMU and trypsin was set as the digestion enzyme. The resulting searching files were then analyzed and visualized by Scaffold 2 proteome software.\nEach identified protein must contain at least 2 unique peptides that are exclusively assigned to this protein with a minimum protein identification probability of 99%. Each peptide spectrum must meet several selection thresholds including >95% for peptide identification probability, >1.0 for SEQUEST XCorr score, and ±6 ppm for actual minus calculated peptide mass."}, "[3]": {"target": "T1, p300", "experiment": "In-gel fluorescent detection of p300-catalyzed in vitro acylation of histone H3", "settings": "CuAAC with az-Rho, in-gel fluorescence", "text": "CuAAC reactions were allowed to proceed at room temperature for 1 hr, and proteins were subsequently separated on 15% SDS-PAGE. The gels were soaked in destaining solution (40% MeOH, 10% AcOH, 50% H2O) for 1-2 hrs to remove the non-covalently bound az-Rho dye. After washing with dd H2O, the gel was subjected to in-gel fluorescence scanning."}, "[4]": {"settings": "lysine-modified peptide, H3 + acyl-CoA + p300"}, "[5]": {"settings": "lysine-modified peptide, H3 + acyl-CoA, without p300"}}}
{"substance": "5-hexynyl-CoA [Analog 3]", "values": [{"measurement": "utilization as acyl-CoA donor for p300-catalyzed acylation of histone H3 peptide", "setting": "[1]", "value": "less efficient acyl-donor substrate"}, {"measurement": "Spectral Counts of Peptide EIAQDFK (73-79) (SEQ ID NO: 7)", "setting": "[2]; H3 + acyl-CoA + p300", "value": 89}, {"measurement": "Spectral Counts of Peptide KLPFQR (64-69) (SEQ ID NO: 6)", "setting": "[2]; H3 + acyl-CoA + p300", "value": 8}, {"measurement": "Spectral Counts of Peptide KQLATK (18-23) (SEQ ID NO: 1)", "setting": "[2]; H3 + acyl-CoA + p300", "value": 10}, {"measurement": "Spectral Counts of Peptide KSAPATGGVK (27-36) (SEQ ID NO: 2)", "setting": "[2]; H3 + acyl-CoA + p300", "value": 38}, {"measurement": "Spectral Counts of Peptide SAPATGGVK (28-36) SEQ ID NO: 3", "setting": "[2]; H3 + acyl-CoA + p300", "value": 17}, {"measurement": "Spectral Counts of Peptide STELLIR (57-63) (SEQ ID NO: 5)", "setting": "[2]; H3 + acyl-CoA + p300", "value": 16}, {"measurement": "Spectral Counts of Peptide VTIMPK (117-122) (SEQ ID NO: 9)", "setting": "[2]; H3 + acyl-CoA + p300", "value": 8}, {"measurement": "Spectral Counts of Peptide YRPGTVALR (41-49) (SEQ ID NO: 4)", "setting": "[2]; H3 + acyl-CoA + p300", "value": 57}, {"measurement": "Spectral Counts of Peptide EIAQDFK (73-79) (SEQ ID NO: 7)", "setting": "[2]; H3 + acyl-CoA, without p300", "value": 74}, {"measurement": "Spectral Counts of Peptide KQLATK (18-23) (SEQ ID NO: 1)", "setting": "[2]; H3 + acyl-CoA, without p300", "value": 4}, {"measurement": "Spectral Counts of Peptide KSAPATGGVK (27-36) (SEQ ID NO: 2)", "setting": "[2]; H3 + acyl-CoA, without p300", "value": 36}, {"measurement": "Spectral Counts of Peptide RVTIMPK (116-122) (SEQ ID NO: 8)", "setting": "[2]; H3 + acyl-CoA, without p300", "value": 1}, {"measurement": "Spectral Counts of Peptide SAPATGGVK (28-36) SEQ ID NO: 3", "setting": "[2]; H3 + acyl-CoA, without p300", "value": 12}, {"measurement": "Spectral Counts of Peptide STELLIR (57-63) (SEQ ID NO: 5)", "setting": "[2]; H3 + acyl-CoA, without p300", "value": 7}, {"measurement": "Spectral Counts of Peptide VTIMPK (117-122) (SEQ ID NO: 9)", "setting": "[2]; H3 + acyl-CoA, without p300", "value": 3}, {"measurement": "Spectral Counts of Peptide YRPGTVALR (41-49) (SEQ ID NO: 4)", "setting": "[2]; H3 + acyl-CoA, without p300", "value": 47}, {"measurement": "Spectral Counts of Peptide KQLATK (18-23, K18) (SEQ ID NO: 13)", "setting": "[2]; [4]", "value": 19}, {"measurement": "Spectral Counts of Peptide KQLATKAAR (18-26, K18, K23) (SEQ ID NO: 15)", "setting": "[2]; [4]", "value": 18}, {"measurement": "Spectral Counts of Peptide KSAPATGGVK (27-36, K27) (SEQ ID NO: 17)", "setting": "[2]; [4]", "value": 12}, {"measurement": "Spectral Counts of Peptide KSTGGKAPR (9-17, K9, K14) (SEQ ID NO: 11)", "setting": "[2]; [4]", "value": 2}, {"measurement": "Spectral Counts of Peptide KSTGGKAPR (9-17, K14) (SEQ ID NO: 10)", "setting": "[2]; [4]", "value": 11}, {"measurement": "Spectral Counts of Peptide QLATKAAR (19-26, K23) (SEQ ID NO: 16)", "setting": "[2]; [4]", "value": 1}, {"measurement": "Spectral Counts of Peptide KQLATK (18-23, K18) (SEQ ID NO: 13)", "setting": "[2]; [5]", "value": 2}, {"measurement": "Spectral Counts of Peptide KSAPATGGVK (27-36, K27) (SEQ ID NO: 17)", "setting": "[2]; [5]", "value": 2}, {"measurement": "Spectral Counts of Peptide KSTGGKAPR (9-17, K14) (SEQ ID NO: 10)", "setting": "[2]; [5]", "value": 2}, {"measurement": "visualization of p300-acylation of histone H3", "setting": "[3]", "value": "serve as sensitive reagents for visualizing p300-acylation of histone H3"}]}
